Data as given in patent publication US20060258717A1, “ORGANIC COMPOUNDS” (priority 2004, published 2006).
Like-named read-outs stand apart in the source and are kept apart here.

Tested on: human umbilical vein endothelial cells (HUVECs)
Settings: for number of tubes (capillary networking) versus control: 24 hours, HUVECs on growth factor-reduced Matrigel, 8 wells, five random fields per well
Description: Various concentrations of compound A (0.1, 1, and 10 μM) are tested to assess the quality of effect of this compound on capillary networking (tube formation) in cultured human umbilical vein endothelial cells (HUVECs) seeded on growth factor-reduced Matrigel. The intensity of capillary networking is evaluated at 24 hours using a phase-contrast microscope. Images are captured and analySYS 3.2 software is used to count the number of tubes in five random fields of each well (8 wells altogether). The effect of the compound is compared to untreated cells grown in cell culture medium (control).

With `Cc1nccn1Cc1ccccn1` [Compound A, [2-(2-methylimidazol-1-yl)methyl]pyridine] the “number of tubes (capillary networking) versus control” value (1 μM compound) was “significantly decreases the number of tubes”, the “number of tubes (capillary networking) versus control” value (10 μM compound) was “significantly decreases the number of tubes” and the “cell toxicity (ToxiLight, ATP release from damaged cells)” value (additional study, concentrations not given) was “not related to cell toxicity”.
